For one data set, the system named is A549. In words: 72-h MTT cytotoxicity assay A549. The format is cell-based. The settings on record: Homo sapiens, A549, 72 h, Table 4. In a few lines:
(§1)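 MTT viability, 72 h compound exposure at 37° C; triplicate wells, 1/3 serial dilutions from DMSO stocks; seeding density per doubling time; MTT 4 h in dark; DMSO solubilisation.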

Another data set addresses PLK-1 (Homo sapiens, UniProt P53350). The experiment in a line: Kinase assay PLK-1. The class given is biochemical. Particulars: Table 2; read-out: Kinase Inhibition IC50 PLK-1. As to the method: Kinase assays. […] This was achieved by measurement of incorporation of radioactive phosphate from ATP into appropriate polypeptide substrates. Recombinant protein kinases and kinase complexes were produced or obtained commercially. Assays were performed using 96-well plates and appropriate assay buffers (typically 25 mM β-glycerophosphate, 20 mM MOPS, 5 mM EGTA, 1 mM DTT, 1 mM […], pH 7.4), into which were added 2-4 μg of active enzyme with appropriate substrates. The reactions were initiated by addition of Mg/ATP mix (15 mM MgCl2+100 μM ATP with 30-50 kBq per well of [γ-^32P]-ATP) and mixtures incubated as required at 30° C. Reactions were stopped on ice, followed by filtration through p81 filterplates or GF/C filterplates (Whatman Polyfiltronics, Kent, UK). After washing 3 times with 75 mM aq orthophosphoric acid, plates were dried, scintillant added and incorporated radioactivity measured in a scintillation counter (TopCount, Packard Instruments, Pangbourne, Berks, UK). Compounds for kinase assay were made-up as 10 mM stocks in DMSO and diluted into 10% DMSO inrassay buffer.

For another data set, the target named is CDK2/cyclin E (Homo sapiens, UniProt P24941). The experiment in a line: Kinase assay CDK2/cyclin E. The format is biochemical. Particulars: Table 2; read-out: Kinase Inhibition IC50 CDK2 cyclin E. In a few lines:
(§2)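 Recombinant kinase (2-4 μg) with polypeptide substrate in pH 7.4 MOPS/β-glycerophosphate buffer; started with 15 mM MgCl2 + 100 μM ATP plus [γ-32P]-ATP, incubated at 30° C. Stopped on ice, filtered, washed in orthophosphoric acid; incorporated 32P counted by scintillation.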

Another data set addresses CDK7/cyclin H (Homo sapiens, UniProt P50613). In words: CDK7 assay. The class given is biochemical. Particulars: Table 2; read-out: Kinase Inhibition IC50 CDK7 cyclin H. In a few lines:
(§3)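 Radiometric filter-binding format: test compound at varying amounts incubated with CTD peptide (biotinyl-Ahx-(YSPTSPS)4-NH2) and either CDK9/cyclin T1 or CDK7/cyclin H, using 100 μM ATP spiked with 32P, 45 min, 30 °C, pH 7.2. Reactions were stopped on ice, bound to avidin, filtered on P81 plates and scintillation-counted.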

The next data set deals with CDK9/cyclin T1 (Homo sapiens, UniProt P50750). The experiment in a line: CDK9 assay. The class given is biochemical. The settings on record: Table 2; read-out: Kinase Inhibition IC50 CDK9 cyclin T1. In a few lines:
as §3

A further data set addresses GSK-3β (Homo sapiens, UniProt P49841). The experiment in a line: Kinase assay GSK-3β. The format is biochemical. The settings on record: Table 2; read-out: Kinase Inhibition IC50 GSK-3β. In a few lines:
as §2

Another data set concerns Saos-2. The experiment in a line: 72-h MTT cytotoxicity assay Saos-2. The format is cell-based. Particulars: Homo sapiens, SAOS-2, 72 h, Table 4. In a few lines:
as §1
(Formazan colour is commonly taken as a measure of viable cells.)

The next data set deals with CDK2/cyclin A (Homo sapiens, UniProt P24941). In words: Kinase assay CDK2/cyclin A. The class given is biochemical. Particulars: Table 2; read-out: Kinase Inhibition IC50 CDK2 cyclin A. The essentials:
as §2

The target in another data set is CDK1/cyclin B (Homo sapiens, UniProt P06493). The experiment in a line: Kinase assay CDK1/cyclin B. The format is biochemical. Particulars: Table 2; read-out: Kinase Inhibition IC50 CDK1 cyclin B. In a few lines: as §2
Sequence of CDK1/cyclin B (P06493 whole entry): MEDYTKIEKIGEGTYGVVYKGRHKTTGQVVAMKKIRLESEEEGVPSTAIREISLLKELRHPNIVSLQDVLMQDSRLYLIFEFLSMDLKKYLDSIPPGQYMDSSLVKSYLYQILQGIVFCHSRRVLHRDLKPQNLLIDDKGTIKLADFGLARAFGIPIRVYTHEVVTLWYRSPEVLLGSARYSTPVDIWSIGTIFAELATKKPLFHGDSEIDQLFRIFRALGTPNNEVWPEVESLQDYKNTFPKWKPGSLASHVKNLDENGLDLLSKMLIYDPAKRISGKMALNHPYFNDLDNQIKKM
Sequence of CDK1/cyclin B (P14635 whole entry partner): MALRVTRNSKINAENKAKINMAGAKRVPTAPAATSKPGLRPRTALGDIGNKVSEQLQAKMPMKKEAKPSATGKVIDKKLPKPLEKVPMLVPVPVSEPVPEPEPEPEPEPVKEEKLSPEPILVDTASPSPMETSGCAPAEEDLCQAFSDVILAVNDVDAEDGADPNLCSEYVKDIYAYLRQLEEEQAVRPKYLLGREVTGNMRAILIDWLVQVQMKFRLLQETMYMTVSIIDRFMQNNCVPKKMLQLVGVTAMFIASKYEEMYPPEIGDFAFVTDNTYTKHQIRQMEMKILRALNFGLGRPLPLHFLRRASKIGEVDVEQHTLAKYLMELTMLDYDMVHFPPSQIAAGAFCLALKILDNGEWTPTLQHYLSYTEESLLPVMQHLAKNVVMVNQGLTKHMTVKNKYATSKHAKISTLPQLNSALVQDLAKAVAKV
For another data set, the system named is HT29. The experiment in a line: 72-h MTT cytotoxicity assay HT29. The format is cell-based. The settings on record: Homo sapiens, HT-29, 72 h, Table 4. In a few lines:
as §1

The target of a further data set is CDK4/cyclin D1 (Homo sapiens, UniProt P11802). In words: Kinase assay CDK4/cyclin D1. The format is biochemical. The settings on record: Table 2; read-out: Kinase Inhibition IC50 CDK4 cyclin D1. The essentials:
as §2

SMILES strings stand for the structures.

Sequence of GSK-3β (P49841 whole entry): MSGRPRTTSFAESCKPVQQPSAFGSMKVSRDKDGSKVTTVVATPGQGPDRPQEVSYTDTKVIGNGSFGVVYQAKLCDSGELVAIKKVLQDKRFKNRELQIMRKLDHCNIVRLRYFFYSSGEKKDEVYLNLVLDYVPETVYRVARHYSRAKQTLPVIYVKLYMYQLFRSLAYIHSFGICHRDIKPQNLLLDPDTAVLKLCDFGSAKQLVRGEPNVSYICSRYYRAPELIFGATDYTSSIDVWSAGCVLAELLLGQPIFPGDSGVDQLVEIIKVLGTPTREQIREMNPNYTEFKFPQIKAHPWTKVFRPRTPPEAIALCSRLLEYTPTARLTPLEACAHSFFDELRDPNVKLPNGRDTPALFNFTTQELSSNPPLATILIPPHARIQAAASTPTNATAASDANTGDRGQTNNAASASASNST
Sequence of PLK-1 (P53350 whole entry): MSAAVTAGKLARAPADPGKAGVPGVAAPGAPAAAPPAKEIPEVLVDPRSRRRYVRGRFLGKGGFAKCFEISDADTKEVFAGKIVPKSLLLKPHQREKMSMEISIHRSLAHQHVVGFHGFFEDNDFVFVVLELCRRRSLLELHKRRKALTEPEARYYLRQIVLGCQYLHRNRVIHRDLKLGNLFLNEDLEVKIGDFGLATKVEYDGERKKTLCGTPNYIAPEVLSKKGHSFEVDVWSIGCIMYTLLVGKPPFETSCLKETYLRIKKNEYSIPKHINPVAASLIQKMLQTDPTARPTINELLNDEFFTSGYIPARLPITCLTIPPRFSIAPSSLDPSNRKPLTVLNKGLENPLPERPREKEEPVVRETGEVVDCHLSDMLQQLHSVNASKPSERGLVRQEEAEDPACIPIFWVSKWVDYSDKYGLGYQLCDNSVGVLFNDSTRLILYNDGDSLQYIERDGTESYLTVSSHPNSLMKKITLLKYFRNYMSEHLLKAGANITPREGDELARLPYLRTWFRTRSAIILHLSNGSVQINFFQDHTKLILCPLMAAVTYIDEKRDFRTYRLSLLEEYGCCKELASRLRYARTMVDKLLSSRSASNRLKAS
Sequence of CDK4/cyclin D1 (P11802 whole entry): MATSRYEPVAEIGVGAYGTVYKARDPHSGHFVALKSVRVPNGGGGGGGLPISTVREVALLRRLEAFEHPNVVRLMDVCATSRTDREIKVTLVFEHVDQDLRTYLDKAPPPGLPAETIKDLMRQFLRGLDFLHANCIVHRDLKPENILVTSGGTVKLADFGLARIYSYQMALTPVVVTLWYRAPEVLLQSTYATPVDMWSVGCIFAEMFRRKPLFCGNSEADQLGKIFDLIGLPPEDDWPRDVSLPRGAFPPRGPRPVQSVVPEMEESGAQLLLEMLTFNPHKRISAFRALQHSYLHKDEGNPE
Sequence of CDK4/cyclin D1 (P24385 whole entry partner): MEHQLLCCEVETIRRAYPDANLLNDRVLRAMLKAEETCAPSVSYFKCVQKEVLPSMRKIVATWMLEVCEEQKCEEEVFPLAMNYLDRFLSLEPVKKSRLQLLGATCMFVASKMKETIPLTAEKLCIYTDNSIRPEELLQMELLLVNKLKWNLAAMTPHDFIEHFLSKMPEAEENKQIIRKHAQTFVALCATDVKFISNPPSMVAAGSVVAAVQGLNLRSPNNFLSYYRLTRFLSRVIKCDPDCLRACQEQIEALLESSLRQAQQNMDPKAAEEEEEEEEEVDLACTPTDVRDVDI
Sequence of CDK9/cyclin T1 (P50750 whole entry): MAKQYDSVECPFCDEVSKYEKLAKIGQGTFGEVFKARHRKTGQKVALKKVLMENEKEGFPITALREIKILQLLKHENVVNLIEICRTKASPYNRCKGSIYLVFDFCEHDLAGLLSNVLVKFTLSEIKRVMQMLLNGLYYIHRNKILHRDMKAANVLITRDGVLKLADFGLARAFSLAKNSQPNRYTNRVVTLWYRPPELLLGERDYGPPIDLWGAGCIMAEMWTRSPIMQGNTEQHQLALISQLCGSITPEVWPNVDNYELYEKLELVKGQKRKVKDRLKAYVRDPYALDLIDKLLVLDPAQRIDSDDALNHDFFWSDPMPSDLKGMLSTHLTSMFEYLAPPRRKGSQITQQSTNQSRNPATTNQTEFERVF
Sequence of CDK9/cyclin T1 (O60563 whole entry partner): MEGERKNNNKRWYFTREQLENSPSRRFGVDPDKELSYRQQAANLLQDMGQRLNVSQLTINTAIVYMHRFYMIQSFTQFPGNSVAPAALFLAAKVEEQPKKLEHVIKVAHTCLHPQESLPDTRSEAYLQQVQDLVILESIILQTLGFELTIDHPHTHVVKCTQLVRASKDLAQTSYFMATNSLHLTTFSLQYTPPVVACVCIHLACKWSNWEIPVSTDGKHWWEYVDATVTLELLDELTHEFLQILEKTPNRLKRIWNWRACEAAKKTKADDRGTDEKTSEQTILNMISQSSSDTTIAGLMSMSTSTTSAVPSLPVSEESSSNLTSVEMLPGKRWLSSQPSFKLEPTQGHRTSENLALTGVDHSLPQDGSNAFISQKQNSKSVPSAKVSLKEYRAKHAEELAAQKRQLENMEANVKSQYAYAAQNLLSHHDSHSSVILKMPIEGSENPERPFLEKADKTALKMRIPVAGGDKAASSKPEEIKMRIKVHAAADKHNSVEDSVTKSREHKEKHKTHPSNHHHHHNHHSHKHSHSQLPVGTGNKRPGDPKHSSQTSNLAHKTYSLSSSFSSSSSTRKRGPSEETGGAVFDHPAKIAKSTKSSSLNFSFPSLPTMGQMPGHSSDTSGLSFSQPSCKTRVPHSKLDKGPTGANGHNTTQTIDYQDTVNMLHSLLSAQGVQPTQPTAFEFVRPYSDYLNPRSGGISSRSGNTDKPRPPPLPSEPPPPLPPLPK
Sequence of CDK7/cyclin H (P50613 whole entry): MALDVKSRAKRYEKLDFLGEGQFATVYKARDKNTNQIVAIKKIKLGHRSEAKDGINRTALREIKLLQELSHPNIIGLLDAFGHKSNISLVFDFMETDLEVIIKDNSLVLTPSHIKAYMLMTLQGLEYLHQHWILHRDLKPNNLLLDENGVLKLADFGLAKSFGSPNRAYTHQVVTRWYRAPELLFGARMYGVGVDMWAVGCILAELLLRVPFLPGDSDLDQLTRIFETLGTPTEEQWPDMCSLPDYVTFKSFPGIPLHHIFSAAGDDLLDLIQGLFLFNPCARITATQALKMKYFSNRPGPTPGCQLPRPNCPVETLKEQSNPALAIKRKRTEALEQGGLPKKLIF

For the compound `Cc1nc(NC(=O)CCN2CCN(C)CC2)sc1-c1ccnc(Nc2cccc([N+](=O)[O-])c2)n1` [Compound 23, N-{4-Methyl-5-[2-(3-nitro-phenylamino)-pyrimidin-4-yl]-thiazol-2-yl}-3-(4-methyl-piperazin-1-yl)-propionamide], the IC50 in the data set with A549 turned out to be 3800 nM; on PLK-1, 24000 nM; on CDK2/cyclin E, 190 nM; on CDK7/cyclin H, 810 nM; at CDK9/cyclin T1, 400 nM; on GSK-3β it was 1200 nM. Besides, the IC50 with Saos-2 is 4400 nM; on CDK2/cyclin A, 1400 nM; on CDK1/cyclin B, 3100 nM; in the data set with HT29, 1100 nM; on CDK4/cyclin D1, 3000 nM.

As to `Cc1nc(C)c(-c2ccnc(Nc3ccc(NC(=O)CCl)cc3)n2)s1` [Compound 50, 2-Chloro-N-{4-[4-(2,4-dimethyl-thiazol-5-yl)-pyrimidin-2-ylamino]-phenyl}-acetamide], the melting point was in the range of 217 to 219 °C. For the same compound, the IC50 in the data set with A549 was found to be 160 nM. Also, the IC50 on CDK2/cyclin E turned out to be 390 nM. In addition, the IC50 on CDK7/cyclin H is 13000 nM. On CDK9/cyclin T1, the IC50 came to 1.8 nM. In addition, half-maximal inhibition in the data set with Saos-2 (IC50) required 160 nM. Moreover, the IC50 at CDK2/cyclin A is 890 nM. Further, on CDK1/cyclin B, the IC50 was found to be 3400 nM. The compound further gave an IC50 with HT29 of 160 nM. Also, at CDK4/cyclin D1, the IC50 was 950 nM.

`Cc1nc(N2CCOCC2)sc1-c1ccnc(Nc2ccc(N3CCOCC3)cc2)n1` [Compound 56, [4-(4-Methyl-2-morpholin-4-yl-thiazol-5-yl)-pyrimidin-2-yl]-(4-morpholin-4-yl-phenyl)-amine] showed a melting point of 229 to 231 °C. The IC50 in the data set on A549 turned out to be 4400 nM. Moreover, the IC50 on CDK2/cyclin E was 600 nM. In addition, the IC50 at CDK7/cyclin H was found to be 850 nM. On CDK9/cyclin T1, the IC50 worked out at 17000 nM. The IC50 at GSK-3β was above 100000 nM. In the data set on Saos-2, this compound registered an IC50 of 5000 nM. On CDK2/cyclin A, the IC50 is 68000 nM. Further, the IC50 at CDK1/cyclin B stood at 18000 nM. The compound further registered an IC50 with HT29 of 2900 nM. Moreover, at CDK4/cyclin D1, the IC50 was 22 nM.

Compound `CNc1nc(C)c(-c2ccnc(Nc3ccc(CCO)cc3)n2)s1` [Compound 59, 2-{4-[4-(4-Methyl-2-methylamino-thiazol-5-yl)-pyrimidin-2-ylamino]-phenyl}-ethanol] showed a melting point of 216 to 218 °C. For the same compound, the IC50 in the data set with A549 came to 2400 nM. Moreover, the IC50 at CDK2/cyclin E amounted to 140 nM. In addition, at CDK7/cyclin H, the IC50 was found to be 2600 nM. Moreover, the IC50 on CDK9/cyclin T1 was 470 nM. At GSK-3β, the IC50 was 2200 nM. Also, the IC50 in the data set on Saos-2 stood at 1900 nM. Also, the IC50 at CDK2/cyclin A stood at 110 nM. In addition, the IC50 at CDK1/cyclin B was determined as 710 nM. The compound also returned a 50% inhibitory concentration (IC50) with HT29 of 1700 nM. Also, the IC50 on CDK4/cyclin D1 was determined as 86 nM.

In turn, `CNc1nc(C)c(-c2ccnc(Nc3cccc(CNC(C)=O)c3)n2)s1` [Compound 63, N-{3-[4-(4-Methyl-2-methylamino-thiazol-5-yl)-pyrimidin-2-ylamino]-benzyl}-acetamide] displayed a melting point of 253 to 255 °C. This compound registered an IC50 in the data set on A549 of 980 nM. The IC50 at PLK-1 was 46000 nM. The IC50 on CDK7/cyclin H is 20000 nM. Also, the IC50 on CDK9/cyclin T1 came to 2700 nM. Besides, the IC50 on GSK-3β amounted to 8800 nM. This compound also registered an IC50 in the data set with Saos-2 of 1200 nM. Besides, the IC50 at CDK2/cyclin A stood at 12000 nM. In addition, on CDK1/cyclin B, the IC50 came to 48000 nM. This compound had an IC50 in the data set on HT29 of 1400 nM. Further, the IC50 at CDK4/cyclin D1 was 7700 nM.

Turning to `CCNc1nc(C)c(-c2ccnc(Nc3cccc(CNC(C)=O)c3)n2)s1` [Compound 64, N-{3-[4-(2-Ethylamino-4-methyl-thiazol-5-yl)-pyrimidin-2-ylamino]-benzyl}-acetamide], the IC50 with A549 was found to be 190 nM; on PLK-1, 18000 nM; on CDK2/cyclin E it was 80 nM; at CDK7/cyclin H, 590 nM; on CDK9/cyclin T1 it was 100 nM; at GSK-3β it was 2100 nM. In addition, the IC50 with Saos-2 was 340 nM; at CDK2/cyclin A, 310 nM; at CDK1/cyclin B it was 740 nM; in the data set with HT29, 410 nM; at CDK4/cyclin D1, 130 nM.

As to `CCNc1nc(C)c(-c2ccnc(Nc3cccc(CN)c3)n2)s1` [Compound 65, (3-Aminomethyl-phenyl)-[4-(2-ethylamino-4-methyl-thiazol-5-yl)-pyrimidin-2-yl]-amine], the melting point is 290 to 292 °C. The compound further came in with an IC50 in the data set on A549 of 3200 nM. In addition, the IC50 at PLK-1 was above 100000 nM. For the same compound, the IC50 at CDK2/cyclin E was determined as 330 nM. In the data set on Saos-2, this compound yielded an IC50 of 650 nM. The compound further returned an IC50 with HT29 of 4800 nM. Moreover, the IC50 on CDK4/cyclin D1 was found to be 110 nM.

For the compound `CC(=O)NCc1cccc(Nc2nccc(-c3sc(C)nc3C)n2)c1` [Compound 66, N-{3-[4-(2,4-Dimethyl-thiazol-5-yl)-pyrimidin-2-ylamino]-benzyl}-acetamide], the melting point lay in the range of 206 to 207 °C. Further, on CDK2/cyclin E, the IC50 amounted to 110 nM. In addition, the IC50 at CDK7/cyclin H is 2100 nM. Further, the IC50 on CDK2/cyclin A amounted to 100 nM. On CDK1/cyclin B, the IC50 came out at 120 nM. At CDK4/cyclin D1, the IC50 came out at 630 nM.

`CNc1nc(C)c(-c2ccnc(Nc3cccc(CN)c3)n2)s1` [Compound 67, (3-Aminomethyl-phenyl)-[4-(4-methyl-2-methylamino-thiazol-5-yl)-pyrimidin-2-yl]-amine] returned a melting point of 287 to 289 °C. In the data set on A549, the 50% inhibitory concentration (IC50) turned out to be 14000 nM. Also, the IC50 on PLK-1 is above 100000 nM. The IC50 at CDK2/cyclin E worked out at 420 nM. In addition, the IC50 with Saos-2 is 1100 nM. The compound also registered an IC50 in the data set with HT29 of 14000 nM. Moreover, the IC50 on CDK4/cyclin D1 is 240 nM.

Usually IC50 stands for the concentration at which inhibition is half-maximal. The melting point is the temperature, or range, at which the solid turns liquid.

Values taken from US7432260B2, “Pyrimidine compounds” (Cyclacel Limted, priority 2002, dated 2008).
